In ChEMBL document CHEMBL3286195, “Discovery of (10R)-7-amino-12-fluoro-2,10,16-trimethyl-15-oxo-10,15,16,17-tetrahydro-2H-8,4-(metheno)pyrazolo[4,3-h][2,5,11]-benzoxadiazacyclotetradecine-3-carbonitrile (PF-06463922), a macrocyclic inhibitor of anaplastic lymphoma kinase (ALK) and c-ros oncogene 1 (ROS1) with preclinical brain …” (J Med Chem, 2014):

What was measured:
in vitro = conditions: human, liver microsomes
Description: Apparent total intrinsic clearance in human liver microsomes

physchem = conditions: octanol/water, pH 7.4
[1] = molecular target: ALK tyrosine kinase receptor (Homo sapiens, UniProt Q9UM73)
MDR1 = assay: in vitro; conditions: dog, MDCK-MDR1, pH 7.4
Description: Efflux ratio of permeability from basolateral to apical side to apical to basolateral side of MDCK cells expressing MDR1 at pH 7.4

[2] = molecular target: ALK tyrosine kinase receptor (Homo sapiens, UniProt Q9UM73, L1196M)
[3] = molecular target: BDNF/NT-3 growth factors receptor (Homo sapiens, UniProt Q16620)
Description: Inhibition of TRKB (unknown origin) by off-chip mobility shift assay

Focal adhesion kinase 1 = Focal adhesion kinase 1 (Homo sapiens, UniProt Q05397)
Description: Inhibition of PTK2 (unknown origin) by TR-FRET-based Z'-LYTE assay

Plasma [4] = assay: fAUC in rat plasma at 10 mg/kg, po; assay type: ADME, organism-based; design: dose 10 mg/kg, route oral; conditions: in vivo
[5] = Oral bioavailability in rat at 10 mg/kg qd; assay type: ADME, organism-based; conditions: in vivo
[6] = molecular target: Tyrosine-protein kinase FRK (Homo sapiens, UniProt P42685); assay: Inhibition of FRK (unknown origin) by TR-FRET-based Z'-LYTE assay
[7] = AUC (infinity) in rat at 1 mg/kg, iv qd; assay type: ADME, organism-based; design: time infinity, dose 1 mg/kg, route intravenous; conditions: plasma
[8] = AUC in rat plasma at 10 mg/kg, po; assay type: ADME, organism-based; design: dose 10 mg/kg, route oral
[9] = AUC in rat brain at 10 mg/kg, po; assay type: ADME, organism-based; design: dose 10 mg/kg, route oral
[10] = Volume of distribution at steady state in rat at 1 mg/kg, iv qd; assay type: ADME, organism-based; design: dose 1 mg/kg, route intravenous; conditions: in vivo, read-out: Vdss
Rattus norvegicus = assay: fCmax in rat at 10 mg/kg, po qd; assay type: ADME, organism-based; design: dose 10 mg/kg, route oral; conditions: in vivo
[11] = fAUC in rat CSF at 10 mg/kg, po; assay type: ADME, organism-based, Cerebrospinal fluid; design: dose 10 mg/kg, route oral; conditions: in vivo
[12] = molecular target: NT-3 growth factor receptor (Homo sapiens, UniProt Q16288)
Description: Inhibition of NRTK3 (unknown origin) by TR-FRET-based Z'-LYTE assay

[13] = Cmax in rat at 10 mg/kg, po qd; assay type: ADME, organism-based; design: dose 10 mg/kg, route oral; conditions: in vivo
Activated CDC42 kinase 1 = Activated CDC42 kinase 1 (Homo sapiens, UniProt Q07912)
Description: Inhibition of TNK2 (unknown origin) by TR-FRET-based Z'-LYTE assay

[14] = Tmax in rat at 10 mg/kg, po qd; assay type: ADME, organism-based; design: dose 10 mg/kg, route oral; conditions: in vivo
[15] = molecular target: Leukocyte tyrosine kinase receptor (Homo sapiens, UniProt P29376); assay: Inhibition of LTK (unknown origin) by TR-FRET-based Z'-LYTE assay
[16] = Half life in rat at 1 mg/kg, iv qd; assay type: ADME, organism-based; design: dose 1 mg/kg, route intravenous; conditions: in vivo
[17] = Fraction unbound in rat plasma at 2.4 uM; assay type: ADME, cell-free
[18] = molecular target: Tyrosine-protein kinase Fer (Homo sapiens, UniProt P16591); assay: Inhibition of FER (unknown origin) by TR-FRET-based Z'-LYTE assay
Plasma [19] = assay: Average plasma concentration in rat at 10 mg/kg, po qd; assay type: ADME, organism-based; design: dose 10 mg/kg, route oral; conditions: in vivo
[20] = Plasma clearance in rat at 1 mg/kg, iv qd; assay type: ADME, organism-based; design: dose 1 mg/kg, route intravenous
[21] = molecular target: High affinity nerve growth factor receptor (Homo sapiens, UniProt P04629); assay: Inhibition of […] (unknown origin) by TR-FRET-based Z'-LYTE assay
[22] = AUC (0 to 24 hrs) in rat at 10 mg/kg, po qd; assay type: ADME, organism-based; design: time < 24 hr, dose 10 mg/kg, route oral; conditions: plasma
[23] = AUC in rat CSF at 10 mg/kg, po; assay type: ADME, organism-based, Plasma; design: dose 10 mg/kg, route oral
[24] = molecular target: Tyrosine-protein kinase Fes/Fps (Homo sapiens, UniProt P07332); assay: Inhibition of FES (unknown origin) by TR-FRET-based Z'-LYTE assay
Brain = assay: fAUC in rat brain at 10 mg/kg, po; assay type: ADME, organism-based; design: dose 10 mg/kg, route oral; conditions: in vivo
[25] = Fraction unbound in rat brain at 2.4 uM; assay type: ADME, tissue-based
[26] = molecular target: Protein-tyrosine kinase 2-beta (Homo sapiens, UniProt Q14289)
Chain of Protein-tyrosine kinase 2-beta (Q14289 whole entry): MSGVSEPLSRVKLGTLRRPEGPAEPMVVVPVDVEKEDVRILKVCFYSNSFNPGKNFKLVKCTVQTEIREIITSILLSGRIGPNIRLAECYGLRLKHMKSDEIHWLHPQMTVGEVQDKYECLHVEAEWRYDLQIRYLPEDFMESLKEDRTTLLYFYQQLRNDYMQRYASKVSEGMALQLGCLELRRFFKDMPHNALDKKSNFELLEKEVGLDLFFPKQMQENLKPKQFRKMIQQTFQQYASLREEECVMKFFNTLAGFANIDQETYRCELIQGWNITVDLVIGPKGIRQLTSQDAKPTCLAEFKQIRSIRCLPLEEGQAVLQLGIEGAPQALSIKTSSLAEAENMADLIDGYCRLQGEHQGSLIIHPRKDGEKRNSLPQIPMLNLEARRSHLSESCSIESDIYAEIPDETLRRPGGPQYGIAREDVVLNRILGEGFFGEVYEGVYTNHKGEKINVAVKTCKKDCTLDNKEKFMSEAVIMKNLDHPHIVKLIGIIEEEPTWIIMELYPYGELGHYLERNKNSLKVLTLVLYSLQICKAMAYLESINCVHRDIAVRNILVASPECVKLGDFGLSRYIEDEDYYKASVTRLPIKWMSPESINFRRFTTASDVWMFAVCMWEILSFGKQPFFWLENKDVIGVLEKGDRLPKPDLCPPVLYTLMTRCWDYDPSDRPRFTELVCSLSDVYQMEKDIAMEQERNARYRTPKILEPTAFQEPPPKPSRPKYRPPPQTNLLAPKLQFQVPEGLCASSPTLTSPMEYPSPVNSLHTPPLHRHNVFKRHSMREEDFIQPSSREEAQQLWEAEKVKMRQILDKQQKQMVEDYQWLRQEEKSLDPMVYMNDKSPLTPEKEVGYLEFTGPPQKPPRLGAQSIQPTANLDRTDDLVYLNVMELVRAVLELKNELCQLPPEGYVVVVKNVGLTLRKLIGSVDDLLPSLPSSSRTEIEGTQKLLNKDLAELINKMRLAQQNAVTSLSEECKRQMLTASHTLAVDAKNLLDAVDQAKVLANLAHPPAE
Description: Inhibition of PTK2B (unknown origin) by TR-FRET-based Z'-LYTE assay

Chain of BDNF/NT-3 growth factors receptor (Q16620 whole entry): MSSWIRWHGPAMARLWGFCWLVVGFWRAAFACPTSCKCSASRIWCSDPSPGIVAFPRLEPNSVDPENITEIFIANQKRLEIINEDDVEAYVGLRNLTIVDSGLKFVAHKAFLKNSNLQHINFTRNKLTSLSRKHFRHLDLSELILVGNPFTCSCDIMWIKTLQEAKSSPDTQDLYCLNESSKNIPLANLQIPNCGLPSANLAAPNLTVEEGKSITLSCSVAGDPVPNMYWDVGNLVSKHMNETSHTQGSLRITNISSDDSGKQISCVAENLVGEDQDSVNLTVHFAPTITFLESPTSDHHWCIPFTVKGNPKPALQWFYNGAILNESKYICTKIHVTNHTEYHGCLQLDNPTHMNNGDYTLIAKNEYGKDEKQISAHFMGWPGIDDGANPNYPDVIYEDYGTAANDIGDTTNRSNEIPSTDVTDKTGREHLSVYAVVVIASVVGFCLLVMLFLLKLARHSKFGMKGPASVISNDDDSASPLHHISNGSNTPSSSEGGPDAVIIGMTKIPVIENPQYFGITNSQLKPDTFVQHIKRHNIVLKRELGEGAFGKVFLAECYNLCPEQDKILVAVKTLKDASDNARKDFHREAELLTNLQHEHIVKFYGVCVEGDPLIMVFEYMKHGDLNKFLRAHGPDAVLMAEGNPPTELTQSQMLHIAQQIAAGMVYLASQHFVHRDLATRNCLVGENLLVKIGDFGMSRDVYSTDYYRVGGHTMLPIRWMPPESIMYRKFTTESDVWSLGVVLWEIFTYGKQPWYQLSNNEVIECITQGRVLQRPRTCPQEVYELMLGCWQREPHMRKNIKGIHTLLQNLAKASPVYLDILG
Chain of Tyrosine-protein kinase Fes/Fps (P07332 whole entry): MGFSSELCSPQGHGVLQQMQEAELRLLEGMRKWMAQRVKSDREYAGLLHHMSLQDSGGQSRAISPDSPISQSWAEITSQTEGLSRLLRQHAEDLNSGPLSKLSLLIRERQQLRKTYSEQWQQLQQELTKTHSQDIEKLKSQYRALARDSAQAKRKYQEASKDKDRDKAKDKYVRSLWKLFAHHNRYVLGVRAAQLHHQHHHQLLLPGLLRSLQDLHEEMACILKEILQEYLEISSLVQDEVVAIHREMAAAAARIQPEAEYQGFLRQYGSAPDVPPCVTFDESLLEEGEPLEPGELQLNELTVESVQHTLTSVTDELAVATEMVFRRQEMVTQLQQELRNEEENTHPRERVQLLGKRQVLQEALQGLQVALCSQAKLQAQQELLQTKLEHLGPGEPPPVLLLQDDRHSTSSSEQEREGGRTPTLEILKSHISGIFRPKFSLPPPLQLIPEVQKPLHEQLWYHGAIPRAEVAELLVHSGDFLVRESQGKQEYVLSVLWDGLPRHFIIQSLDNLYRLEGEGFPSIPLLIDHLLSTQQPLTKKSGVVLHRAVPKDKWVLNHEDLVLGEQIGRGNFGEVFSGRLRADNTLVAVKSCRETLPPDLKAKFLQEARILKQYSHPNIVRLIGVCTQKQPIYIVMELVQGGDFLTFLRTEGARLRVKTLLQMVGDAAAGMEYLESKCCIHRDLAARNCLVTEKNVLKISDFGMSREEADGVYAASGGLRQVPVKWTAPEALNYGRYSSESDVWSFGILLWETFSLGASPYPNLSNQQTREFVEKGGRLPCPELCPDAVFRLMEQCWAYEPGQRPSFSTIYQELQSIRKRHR
Chain of Focal adhesion kinase 1 (Q05397 whole entry): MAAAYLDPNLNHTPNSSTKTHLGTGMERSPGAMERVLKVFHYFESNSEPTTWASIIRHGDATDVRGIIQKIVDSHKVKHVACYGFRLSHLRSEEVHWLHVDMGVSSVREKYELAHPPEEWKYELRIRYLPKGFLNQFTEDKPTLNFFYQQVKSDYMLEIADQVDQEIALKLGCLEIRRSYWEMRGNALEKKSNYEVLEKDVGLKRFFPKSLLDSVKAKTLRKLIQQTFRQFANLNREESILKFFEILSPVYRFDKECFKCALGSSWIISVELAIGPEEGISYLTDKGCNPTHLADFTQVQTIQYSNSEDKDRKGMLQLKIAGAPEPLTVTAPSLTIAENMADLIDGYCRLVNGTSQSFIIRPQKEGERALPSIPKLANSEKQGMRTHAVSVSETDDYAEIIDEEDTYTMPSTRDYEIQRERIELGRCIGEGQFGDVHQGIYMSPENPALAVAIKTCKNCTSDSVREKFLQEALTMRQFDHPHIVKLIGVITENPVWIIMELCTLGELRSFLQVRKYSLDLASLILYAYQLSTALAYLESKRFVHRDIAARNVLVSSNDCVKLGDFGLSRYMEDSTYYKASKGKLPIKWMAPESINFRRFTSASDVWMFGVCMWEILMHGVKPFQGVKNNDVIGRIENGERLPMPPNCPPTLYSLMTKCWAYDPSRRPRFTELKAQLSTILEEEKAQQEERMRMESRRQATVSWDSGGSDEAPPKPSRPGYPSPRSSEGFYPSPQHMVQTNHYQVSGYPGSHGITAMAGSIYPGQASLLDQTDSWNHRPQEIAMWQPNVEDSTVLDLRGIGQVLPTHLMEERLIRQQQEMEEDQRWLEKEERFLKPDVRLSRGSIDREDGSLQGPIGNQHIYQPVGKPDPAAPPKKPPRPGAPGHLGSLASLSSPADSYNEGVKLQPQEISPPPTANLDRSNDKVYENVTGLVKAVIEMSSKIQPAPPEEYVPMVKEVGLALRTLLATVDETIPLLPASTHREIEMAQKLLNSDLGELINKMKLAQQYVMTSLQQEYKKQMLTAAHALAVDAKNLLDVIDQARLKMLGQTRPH
Chain of Tyrosine-protein kinase FRK (P42685 whole entry): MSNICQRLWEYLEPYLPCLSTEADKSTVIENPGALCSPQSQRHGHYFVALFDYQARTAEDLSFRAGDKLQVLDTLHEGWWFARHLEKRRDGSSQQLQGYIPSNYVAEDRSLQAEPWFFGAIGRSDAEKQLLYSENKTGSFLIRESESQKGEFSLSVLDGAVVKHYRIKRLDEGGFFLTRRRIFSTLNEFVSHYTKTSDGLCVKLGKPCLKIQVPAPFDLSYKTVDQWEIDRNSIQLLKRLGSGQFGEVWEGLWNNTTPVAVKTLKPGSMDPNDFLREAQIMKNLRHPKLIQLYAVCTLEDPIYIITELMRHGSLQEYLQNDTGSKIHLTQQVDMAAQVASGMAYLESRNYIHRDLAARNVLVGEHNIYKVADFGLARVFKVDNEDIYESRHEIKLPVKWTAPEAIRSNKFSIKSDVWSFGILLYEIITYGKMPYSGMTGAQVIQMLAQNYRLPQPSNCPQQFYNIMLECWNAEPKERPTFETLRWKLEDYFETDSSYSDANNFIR
Chain of Tyrosine-protein kinase Fer (P16591 whole entry): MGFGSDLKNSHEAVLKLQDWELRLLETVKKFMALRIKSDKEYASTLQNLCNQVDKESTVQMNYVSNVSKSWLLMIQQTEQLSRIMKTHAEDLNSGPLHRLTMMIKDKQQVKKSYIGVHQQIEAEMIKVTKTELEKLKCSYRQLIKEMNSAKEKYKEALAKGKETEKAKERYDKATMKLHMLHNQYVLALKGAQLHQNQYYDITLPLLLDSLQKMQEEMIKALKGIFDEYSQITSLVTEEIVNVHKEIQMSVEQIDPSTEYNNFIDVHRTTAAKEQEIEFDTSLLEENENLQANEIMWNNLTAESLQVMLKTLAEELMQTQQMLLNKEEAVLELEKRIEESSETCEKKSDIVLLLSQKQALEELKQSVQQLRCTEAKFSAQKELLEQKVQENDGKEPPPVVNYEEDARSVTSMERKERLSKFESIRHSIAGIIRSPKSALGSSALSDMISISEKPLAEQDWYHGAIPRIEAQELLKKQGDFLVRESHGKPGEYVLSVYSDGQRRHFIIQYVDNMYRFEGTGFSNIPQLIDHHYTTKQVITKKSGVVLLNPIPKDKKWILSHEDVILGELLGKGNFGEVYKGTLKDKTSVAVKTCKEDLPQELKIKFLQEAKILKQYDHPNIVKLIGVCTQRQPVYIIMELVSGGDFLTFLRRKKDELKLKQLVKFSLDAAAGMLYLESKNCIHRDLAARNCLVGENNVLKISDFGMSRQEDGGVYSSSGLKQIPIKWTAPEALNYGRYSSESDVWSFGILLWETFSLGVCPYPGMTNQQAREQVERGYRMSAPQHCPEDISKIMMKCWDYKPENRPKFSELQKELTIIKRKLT

## C[C@@H](Oc1cc(-c2cnnn2C)cnc1N)c1cc(F)ccc1-n1nccn1
In vitro
  CLint scaled: 0.48 L/h/kg

## Cc1nc([C@](C)(O)CO)sc1-c1cnc(N)c(O[C@H](C)c2cc(F)ccc2-n2nccn2)c1
In vitro
  CLint scaled: 0.78 L/h/kg

## Cc1nn(C)cc1-c1cnc(N)c(O[C@H](C)c2cc(F)ccc2-n2nccn2)c1
In vitro
  CLint scaled: 3.96 L/h/kg

## COc1ccc(F)cc1[C@@H](C)Oc1cc(-c2cnnn2C)cnc1N
In vitro
  CLint scaled: 1.5 L/h/kg
physchem
  logD: 2.4

## CNC(=O)c1ccc(F)cc1[C@@H](C)Oc1cc(-c2cn(C)nc2C)cnc1N
In vitro
  CLint scaled: 1.68 L/h/kg
physchem
  logD: 2.1

## Cc1nn(C)cc1-c1cnc(N)c(O[C@H](C)c2cc(F)ccc2C(=O)N(C)C)c1
[1]
  Ki: 0.022 µM
MDR1
  efflux ratio: 7.6
In vitro
  CLint scaled: 3.48 L/h/kg
[2]
  Ki: 0.31 µM
physchem
  logD: 2.1

## COc1ncccc1-c1cnc(N)c(O[C@H](C)c2cc(F)ccc2-n2nccn2)n1
In vitro
  CLint scaled: 2.46 L/h/kg
physchem
  logD: 4

## CNC(=O)c1ccc(F)cc1[C@@H](C)Oc1nc(-c2cccnc2OC)cnc1N
In vitro
  CLint scaled: 4.56 L/h/kg
physchem
  logD: 3

## C[C@@H](Oc1cc(-c2cccc(S(C)(=O)=O)c2)cnc1N)c1cc(F)ccc1-n1nccn1
In vitro
  CLint scaled: 0.6 L/h/kg
physchem
  logD: 3.4

## N#Cc1[nH]nc2c1-c1cnc(N)c(c1)OCc1cc(F)ccc1OCC2
physchem
  logD: 3

## N#Cc1[nH]nc2c1-c1cnc(N)c(c1)OCc1cc(F)ccc1OCCC2
physchem
  logD: 3.6

## Cn1ncc2c1-c1cnc(N)c(c1)OCc1cc(F)ccc1OCCC2
physchem
  logD: 3.4

## Cn1ncc2c1-c1cnc(N)c(c1)OCc1cc(F)ccc1OCCCC2
physchem
  logD: 3.1

## C[C@H]1Oc2cc(cnc2N)-c2c(nn(C)c2C#N)CCOc2ccc(F)cc21
physchem
  logD: 3.3

## C[C@H]1Oc2cc(cnc2N)-c2c(nn(C)c2C#N)CCCOc2ccc(F)cc21
physchem
  logD: 3.8

## Cc1nn(C)c2c1-c1cnc(N)c(c1)O[C@H](C)c1cc(F)ccc1C(=O)N(C)C2
In vitro
  CLint scaled: 0.516 L/h/kg
[3]
  Ki: 0.0005 µM
physchem
  logD: 2.2

## Cc1nn(C)c2c1-c1cnc(N)c(c1)O[C@@H](C)c1cc(F)ccc1C(=O)N(C)C2
In vitro
  CLint scaled: 0.48 L/h/kg
physchem
  logD: 2.2

## Cc1nn(C)c2c1-c1cnc(N)c(c1)OCc1cc(F)ccc1C(=O)N(C)C2
In vitro
  CLint scaled: 0.504 L/h/kg
physchem
  logD: 2

## Cc1nn(C)c2c1-c1cnc(N)c(n1)O[C@H](C)c1cc(F)ccc1C(=O)N(C)C2
In vitro
  CLint scaled: 0.48 L/h/kg
physchem
  logD: 2.5

## Cc1nn(C)c2c1-c1cnc(N)c(n1)O[C@@H](C)c1cc(F)ccc1C(=O)N(C)C2
In vitro
  CLint scaled: 0.582 L/h/kg
physchem
  logD: 2.5

## COc1nn(C)c2c1-c1cnc(N)c(c1)O[C@H](C)c1cc(F)ccc1C(=O)N(C)C2
In vitro
  CLint scaled: 0.498 L/h/kg
physchem
  logD: 2.4

## COc1nn(C)c2c1-c1cnc(N)c(n1)O[C@H](C)c1cc(F)ccc1C(=O)N(C)C2
In vitro
  CLint scaled: 1.41 L/h/kg
physchem
  logD: 2.7

## C[C@H]1Oc2cc(cnc2N)-c2cc(S(C)(=O)=O)ccc2CN(C)C(=O)c2ccc(F)cc21
In vitro
  CLint scaled: 0.546 L/h/kg
physchem
  logD: 1.8

## C[C@H]1Oc2nc(cnc2N)-c2cc(S(C)(=O)=O)ccc2CN(C)C(=O)c2ccc(F)cc21
In vitro
  CLint scaled: 0.48 L/h/kg
physchem
  logD: 2.2

## C[C@H]1Oc2cc(cnc2N)-c2c(C3CC3)nn(C)c2CN(C)C(=O)c2ccc(F)cc21
In vitro
  CLint scaled: 0.876 L/h/kg
[3]
  Ki: 0.0004 µM
physchem
  logD: 2.9

## Cc1cnc2nc3c(n2c1)-c1cnc(N)c(c1)O[C@H](C)c1cc(F)ccc1C(=O)N(C)C3
MDR1
  efflux ratio: 20.2
In vitro
  CLint scaled: < 0.48 L/h/kg
[3]
  Ki: 0.077 µM
physchem
  logD: 1.7

## C[C@H]1Oc2nc(cnc2N)-c2c(nc3ccc(C#N)cn23)CN(C)C(=O)c2ccc(F)cc21
In vitro
  CLint scaled: < 0.48 L/h/kg
[3]
  Ki: 0.065 µM
physchem
  logD: 2.4

## C[C@H]1Oc2cc(cnc2N)-c2c(nn(C)c2C#N)CN(C)C(=O)c2ccc(F)cc21 [LORLATINIB]
Focal adhesion kinase 1
  IC50: 0.017 µM
Plasma [4]
  fAUC: 11.052 µM·h
[5]
  bioavailability: 100%
[6]
  IC50: 0.053 µM
[7]
  AUC(0-inf): 1.15 µg·h/mL
[8]
  AUC: 30.7 µM·h
[9]
  AUC: 19.6 µM·h
[10]
  Vd: 2.7 L/kg
Rattus norvegicus
  fCmax: 1530 nM
[11]
  fAUC: 3.475 µM·h
In vitro
  CLint scaled: < 0.48 L/h/kg
[12]
  IC50: 0.046 µM
[13]
  Cmax: 1.73 µg/mL
Activated CDC42 kinase 1
  IC50: 0.017 µM
[14]
  Tmax: 1.3 h
[15]
  IC50: 0.0027 µM
[16]
  half-life: 2.7 h
[17]
  fraction unbound at 2.4 µM: 0.36
[18]
  IC50: 0.0033 µM
Plasma [19]
  Cave: 0.551 µM
[20]
  clearance: 0.93 L/h/kg
[21]
  IC50: 0.024 µM
[22]
  AUC at 24 h: 14.9 µg·h/mL
[23]
  AUC: 3.48 µM·h
[24]
  IC50: 0.006 µM
Brain
  fAUC: 2.355 µM·h
[25]
  fraction unbound at 2.4 µM: 0.12
[26]
  IC50: 0.014 µM
physchem
  logD: 2.3
